# Experimental data published in patent publication EP2768830B1, “APOPTOSIS-INDUCING AGENTS FOR THE TREATMENT OF CANCER AND IMMUNE AND AUTOIMMUNE DISEASES” (AbbVie Inc., priority 2011, dated 2013).
# Read-outs that look alike come from different tables or passages of the source.
# Tests used:
# [1] = biological target: GST-Bcl-xL (Homo sapiens, UniProt Q07817); details: read-out: TR-FRET binding Bcl-xL Ki
# [2] = tested on: mouse FL5.12 cells transfected with Bcl-XL; test: FL5.12 cellular assay (cell viability, CellTiter-Glo); format: cell-based; details: FL5.12 cells transfected with Bcl-XL, IL-3-depleted, 3% FBS assay media, 24 hours, CellTiter-Glo, read-out: FL5.12 Bcl-xL, - IL3, EC 50;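 further: each EC50 determination derived from duplicate measurements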
# Method: For assaying the compound activity, the cells were exchanged into an IL-3-depleted deprivation media, which was identical to the growth media except for the absence of FBS and WEHI-3B conditional media, for 2 days. Then the cells were exchanged to 3% FBS assay media (RPMI with 2 mM glutamine, 1% 100 mM sodium pyruvate, 2% 1 M HEPES, 4 µL/L of β-mercaptoethanol, 1% penicillin-streptomycin, 3% FBS). Compounds in series dilutions were added, and the cells were cultured for 24 hours. Compounds in series dilutions were added, and the cells were cultured for 24 hours. Cell viability was assayed using the CellTiter-Glo assay (Promega Corp., Madison, WI) according to the manufacturer instructions. Individual determinations were the result of duplicate values.
# GST-Bcl-xL, sequence (Q07817 whole entry): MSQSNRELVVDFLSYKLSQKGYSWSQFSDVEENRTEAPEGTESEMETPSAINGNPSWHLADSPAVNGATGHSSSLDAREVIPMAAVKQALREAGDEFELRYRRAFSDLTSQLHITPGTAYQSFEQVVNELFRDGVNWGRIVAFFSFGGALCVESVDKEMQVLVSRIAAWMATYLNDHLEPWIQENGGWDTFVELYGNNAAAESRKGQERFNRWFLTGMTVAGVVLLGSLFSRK
Molecule,Ki [1],EC50 ([2]; Mus musculus),EC50 [2]
"O=C(Nc1nc2ccccc2s1)c1cccc2c1CN(c1ccc(-c3cnn(Cc4ccccc4N4CCOCC4)c3)c(C(=O)O)n1)CC2 [Example 76, 6-[8-(1,3-benzothiazol-2-ylcarbamoyl)-3,4-dihydroisoquinolin-2(1H)-yl]-3-{1-[2-(morpholin-4-yl)benzyl]-1H-pyrazol-4-yl}pyridine-2-carboxylic acid]",0.029 µM,> 1 µM,–
"COc1cccc(Cn2cc(-c3ccc(N4CCc5cccc(C(=O)Nc6nc7ccccc7s6)c5C4)nc3C(=O)O)cn2)c1 [Example 14, 6-[8-(1,3-benzothiazol-2-ylcarbamoyl)-3,4-dihydroisoquinolin-2(1H)-yl]-3-[1-(3-methoxybenzyl)-1H-pyrazol-4-yl]pyridine-2-carboxylic acid]",0.012 µM,–,> 1 µM
"O=C(Nc1nc2ccccc2s1)c1cccc2c1CN(c1ccc(-c3cnn(Cc4ccc5ccccc5c4)c3)c(C(=O)O)n1)CC2 [Example 28, 6-[8-(1,3-benzothiazol-2-ylcarbamoyl)-3,4-dihydroisoquinolin-2(1H)-yl]-3-[1-(naphthalen-2-ylmethyl)-1H-pyrazol-4-yl]pyridine-2-carboxylic acid]",0.033 µM,> 1 µM,–
"Cc1c(-c2ccc(N3CCc4cccc(C(=O)Nc5nc6ccccc6s5)c4C3)nc2C(=O)O)cnn1Cc1ccccc1OCCN1CCOCC1 [Example 79, 6-[8-(1,3-benzothiazol-2-ylcarbamoyl)-3,4-dihydroisoquinolin-2(1H)-yl]-3-(5-methyl-1-{2-[2-(morpholin-4-yl)ethoxy]benzyl}-1H-pyrazol-4-yl)pyridine-2-carboxylic acid]",0.0005 µM,0.019 µM,–
"CN(c1cccc(-c2ccc(N3CCc4cccc(C(=O)Nc5nc6ccccc6s5)c4C3)nc2C(=O)O)c1C#N)S(=O)(=O)C1CCCCC1 [Example 181, 6-[8-(1,3-benzothiazol-2-ylcarbamoyl)-3,4-dihydroisoquinolin-2(1H)-yl]-3-{2-cyano-3-[(cyclohexylsulfonyl)(methyl)amino]phenyl}pyridine-2-carboxylic acid]",–,0.241 µM,–
"Cc1ccc(S(=O)(=O)n2ccc(-c3ccc(N4CCc5cccc(C(=O)Nc6nc7ccccc7s6)c5C4)nc3C(=O)O)c2)cc1 [Example 126, 6-[8-(1,3-benzothiazol-2-ylcarbamoyl)-3,4-dihydroisoquinolin-2(1H)-yl]-3-{1-[(4-methylphenyl)sulfonyl]-1H-pyrrol-3-yl}pyridine-2-carboxylic acid]",0.047 µM,> 1 µM,–
"O=C(Nc1nc2ccccc2s1)c1cccc2c1CN(c1ccc(-c3cnn(Cc4ccccc4)c3-c3ccccc3)c(C(=O)O)n1)CC2 [Example 65, 6-[8-(1,3-benzothiazol-2-ylcarbamoyl)-3,4-dihydroisoquinolin-2(1H)-yl]-3-(1-benzyl-5-phenyl-1H-pyrazol-4-yl)pyridine-2-carboxylic acid]",0.393 µM,> 1 µM,–
"Cc1c(-c2ccc(N3CCc4cccc(C(=O)Nc5nc6ccccc6s5)c4C3)nc2C(=O)O)cnn1Cc1ccccc1OCC(C)(CO)CO [Example 98, 6-[8-(1,3-benzothiazol-2-ylcarbamoyl)-3,4-dihydroisoquinolin-2(1H)-yl]-3-(1-{2-[3-hydroxy-2-(hydroxymethyl)-2-methylpropoxy]benzyl}-5-methyl-1H-pyrazol-4-yl)pyridine-2-carboxylic acid]",0.002 µM,0.421 µM,–
"O=C(Nc1nc2ccccc2s1)c1cccc2c1CN(c1ccc(-c3cnn(C4CCOc5ccccc54)c3)c(C(=O)O)n1)CC2 (stereo not drawn) [Example 39, 6-[8-(1,3-benzothiazol-2-ylcarbamoyl)-3,4-dihydroisoquinolin-2(1H)-yl]-3-[1-(3,4-dihydro-2H-chromen-4-yl)-1H-pyrazol-4-yl]pyridine-2-carboxylic acid]",0.056 µM,> 1 µM,–
"Cc1c(OC2CCCCC2)cccc1-c1ccc(N2CCc3cccc(C(=O)Nc4nc5ccccc5s4)c3C2)nc1C(=O)O [Example 114, 6-[8-(1,3-benzothiazol-2-ylcarbamoyl)-3,4-dihydroisoquinolin-2(1H)-yl]-3-[3-(cyclohexyloxy)-2-methylphenyl]pyridine-2-carboxylic acid]",0.0002 µM,0.22 µM,–
"Cc1c(-c2ccc(N3CCc4cccc(C(=O)Nc5nc6ccccc6s5)c4C3)nc2C(=O)O)ccnc1Oc1ccccc1 [Example 142, 6-[8-(1,3-benzothiazol-2-ylcarbamoyl)-3,4-dihydroisoquinolin-2(1H)-yl]-3'-methyl-2'-phenoxy-3,4'-bipyridine-2-carboxylic acid]",0.0005 µM,> 1 µM,–
"Cc1c(CC2CCCCC2)cccc1-c1ccc(N2CCc3cccc(C(=O)Nc4nc5ccccc5s4)c3C2)nc1C(=O)O [Example 107, 6-[8-(1,3-benzothiazol-2-ylcarbamoyl)-3,4-dihydroisoquinolin-2(1H)-yl]-3-[3-(cyclohexylmethyl)-2-methylphenyl]pyridine-2-carboxylic acid]",–,–,0.01 µM
"CC1(C)CCC(Cn2cc(-c3ccc(N4CCc5cccc(C(=O)Nc6nc7ccccc7s6)c5C4)nc3C(=O)O)cn2)=C(c2ccc(Cl)cc2)C1 [Example 83, 6-[8-(1,3-benzothiazol-2-ylcarbamoyl)-3,4-dihydroisoquinolin-2(1H)-yl]-3-(1-{[2-(4-chlorophenyl)-4,4-dimethylcyclohex-1-en-1-yl]methyl}-1H-pyrazol-4-yl)pyridine-2-carboxylic acid]",0.0005 µM,> 1 µM,–
"COCC1(Cn2ncc(-c3ccc(N4CCc5cccc(C(=O)Nc6nc7ccccc7s6)c5C4)nc3C(=O)O)c2C)CCCCC1 [Example 144, 6-[8-(1,3-benzothiazol-2-ylcarbamoyl)-3,4-dihydroisoquinolin-2(1H)-yl]-3-(1-{[1-(methoxymethyl)cyclohexyl]methyl}-5-methyl-1H-pyrazol-4-yl)pyridine-2-carboxylic acid]",< 0.0001 µM,0.213 µM,–
"Cc1c(-c2ccc(N3CCc4cccc(C(=O)Nc5nc6ccccc6s5)c4C3)nc2C(=O)O)cnn1Cc1ccccc1OCC1CCOCC1 [Example 99, 6-[8-(1,3-benzothiazol-2-ylcarbamoyl)-3,4-dihydroisoquinolin-2(1H)-yl]-3-{5-methyl-1-[2-(tetrahydro-2H-pyran-4-ylmethoxy)benzyl]-1H-pyrazol-4-yl}pyridine-2-carboxylic acid]",–,0.06 µM,–
"O=C(Nc1nc2ccccc2s1)c1cccc2c1CN(c1ccc(-c3cnn(CC4CCCCO4)c3)c(C(=O)O)n1)CC2 (stereo not drawn) [Example 149, 6-[8-(1,3-benzothiazol-2-ylcarbamoyl)-3,4-dihydroisoquinolin-2(1H)-yl]-3-[1-(tetrahydro-2H-pyran-2-ylmethyl)-1H-pyrazol-4-yl]pyridine-2-carboxylic acid]",–,0.986 µM,–
"CN(c1nccc(-c2ccc(N3CCc4cccc(C(=O)Nc5nc6ccccc6s5)c4C3)nc2C(=O)O)c1C#N)C1CCCCC1 [Example 164, 6-[8-(1,3-benzothiazol-2-ylcarbamoyl)-3,4-dihydroisoquinolin-2(1H)-yl]-3'-cyano-2'-[cyclohexyl(methyl)amino]-3,4'-bipyridine-2-carboxylic acid]",–,0.308 µM,–
"Cc1c(-c2ccc(N3CCc4cccc(C(=O)Nc5nc6ccccc6s5)c4C3)nc2C(=O)O)cccc1N(C)c1ccccc1 [Example 156, 6-[8-(1,3-benzothiazol-2-ylcarbamoyl)-3,4-dihydroisoquinolin-2(1H)-yl]-3-{2-methyl-3-[methyl(phenyl)amino]phenyl}pyridine-2-carboxylic acid]",–,0.015 µM,–
"6-[8-(1,3-benzothiazol-2-ylcarbamoyl)-3,4-dihydroisoquinolin-2(1H)-yl]-3-(5-methyl-1-{[6-(pyrrolidin-1-yl)pyridin-2-yl]methyl}-1H-pyrazol-4-yl)pyridine-2-carboxylic acid and 6-(8-(1,3-benzothiazol-2-ylcarbamoyl)-3,4-dihydroisoquinolin-2(1H)-yl)-3-(3-methyl-1-((6-(pyrrolidin-1-yl)pyridin-2-yl)methyl)-1H-pyrazol-4-yl)pyridine-2-carboxylic acid [Example 32]",–,–,0.216 µM
"Cc1c(Oc2ccccc2)cccc1-c1ccc(N2CCc3cccc(C(=O)Nc4nc5ccccc5s4)c3C2)nc1C(=O)O [Example 110, 6-[8-(1,3-benzothiazol-2-ylcarbamoyl)-3,4-dihydroisoquinolin-2(1H)-yl]-3-(2-methyl-3-phenoxyphenyl)pyridine-2-carboxylic acid]",–,0.09 µM,–
"O=C(Nc1nc2ccccc2s1)c1cccc2c1CN(c1ccc(-c3ccn(Cc4ccccc4)c3)c(C(=O)O)n1)CC2 [Example 125, 6-[8-(1,3-benzothiazol-2-ylcarbamoyl)-3,4-dihydroisoquinolin-2(1H)-yl]-3-(1-benzyl-1H-pyrrol-3-yl)pyridine-2-carboxylic acid]",–,–,0.527 µM
"Cc1c(-c2ccc(N3CCc4cccc(C(=O)Nc5nc6ccccc6s5)c4C3)nc2C(=O)O)cnn1CC1CCCCC1 [Example 43, 6-[8-(1,3-benzothiazol-2-ylcarbamoyl)-3,4-dihydroisoquinolin-2(1H)-yl]-3-[1-(cyclohexylmethyl)-5-methyl-1H-pyrazol-4-yl]pyridine-2-carboxylic acid]",–,0.004 µM,–
"Cc1c(-c2ccc(N3CCc4cccc(C(=O)Nc5nc6ccccc6s5)c4C3)nc2C(=O)O)cccc1N(C)C1CCCC(C)(C)C1 (stereo not drawn) [Example 159, 6-[8-(1,3-benzothiazol-2-ylcarbamoyl)-3,4-dihydroisoquinolin-2(1H)-yl]-3-{3-[(3,3-dimethylcyclohexyl)(methyl)amino]-2-methylphenyl}pyridine-2-carboxylic acid]",–,0.031 µM,–
"Cc1c(-c2ccc(N3CCc4cccc(C(=O)Nc5nc6ccccc6s5)c4C3)nc2C(=O)O)cnn1C[C@@H]1CC[C@@H]2C[C@H]1C2(C)C [Example 85, 6-[8-(1,3-benzothiazol-2-ylcarbamoyl)-3,4-dihydroisoquinolin-2(1H)-yl]-3-(1-{[(1R,2R,5R)-6,6-dimethylbicyclo[3.1.1]hept-2-yl]methyl}-5-methyl-1H-pyrazol-4-yl)pyridine-2-carboxylic acid]",–,< 0.001 µM,–
